# Measurements reported in the supplement of paper PMC10307832.
# Columns and labels:
# Assay in all cases: relative viability (nuclei count vs DMSO), 5 days (fraction); higher = more cells survive
# [1] = system: HCC-15
# Procedure, shortened: (§1)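 Nuclei were stained with Hoechst during a one-step fixation (final 0.05% Triton X-100, 1% formaldehyde, 1 ug/ml Hoechst) carried out 5 days after dosing, then counted on 4× images. The cells, lung cancer lines in 1536-well plates, had been dosed by pin tool the day after seeding with one drug alone or a fixed anchor-drug dose plus five library-drug doses (not always all listed) in √10 steps. Relative viability is the nuclei count in treated wells divided by that in vehicle wells, and each value is the median of duplicate plates.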
# [2] = system: UMC-11
# Procedure, shortened: as §1
# [3] = system: LCLC-103H
# Procedure, shortened: as §1
# [4] = system: NCI-H1623
# Procedure, shortened: as §1
# [5] = system: NCI-H522
# Procedure, shortened: as §1
# [6] = system: A549
# Procedure, shortened: as §1
# [7] = system: NCI-H1299
# Procedure, shortened: as §1
# [8] = system: Calu-6
# Procedure, shortened: as §1
# [9] = system: IA-LM
# Procedure, shortened: as §1
# [10] = system: NCI-H1703
# Procedure, shortened: as §1
# [11] = system: NCI-H1648
# Procedure, shortened: as §1
# [12] = system: EBC-1
# Procedure, shortened: as §1
smiles,measurement,setting,value
O=C(O)c1ccc(-c2c[nH]c3ncc(-c4ccccc4)cc23)cc1C1CCCC1 + CCNC(=O)c1noc(-c2cc(C(C)C)c(O)cc2O)c1-c1ccc(CN2CCOCC2)cc1 [Luminespib] (partner 0.01 µM),relative viability,[1]; first compound 0.04 µM,0.266
same,relative viability,[1]; first compound 0.1265 µM,0.384
same,relative viability,[1]; first compound 0.4 µM,0.265
same,relative viability,[1]; first compound 1.265 µM,0.192
same,relative viability,[2]; first compound 0.04 µM,0.919
same,relative viability,[2]; first compound 0.1265 µM,1.05
same,relative viability,[2]; first compound 0.4 µM,0.974
same,relative viability,[2]; first compound 1.265 µM,0.738
same,relative viability,[3]; first compound 0.04 µM,1.08
same,relative viability,[3]; first compound 0.1265 µM,1.05
same,relative viability,[3]; first compound 0.4 µM,0.84
same,relative viability,[3]; first compound 1.265 µM,0.713
same,relative viability,[4]; first compound 0.04 µM,0.445
same,relative viability,[4]; first compound 0.1265 µM,0.471
same,relative viability,[4]; first compound 0.4 µM,0.512
same,relative viability,[4]; first compound 1.265 µM,0.496
same,relative viability,[5]; first compound 0.04 µM,1.37
same,relative viability,[5]; first compound 0.1265 µM,1.19
same,relative viability,[5]; first compound 0.4 µM,0.998
same,relative viability,[5]; first compound 1.265 µM,1.03
O=C(O)c1ccc(-c2c[nH]c3ncc(-c4ccccc4)cc23)cc1C1CCCC1 + Cc1nc(Nc2ncc(C(=O)Nc3c(C)cccc3Cl)s2)cc(N2CCN(CCO)CC2)n1 [Dasatinib] (partner 0.075 µM),relative viability,[1]; first compound 0.04 µM,0.648
same,relative viability,[1]; first compound 0.1265 µM,0.698
same,relative viability,[1]; first compound 0.4 µM,0.591
same,relative viability,[1]; first compound 1.265 µM,0.38
same,relative viability,[2]; first compound 0.04 µM,0.505
same,relative viability,[2]; first compound 0.1265 µM,0.496
same,relative viability,[2]; first compound 0.4 µM,0.501
same,relative viability,[2]; first compound 1.265 µM,0.433
same,relative viability,[3]; first compound 0.04 µM,0.481
same,relative viability,[3]; first compound 0.1265 µM,0.426
same,relative viability,[3]; first compound 0.4 µM,0.499
same,relative viability,[3]; first compound 1.265 µM,0.545
same,relative viability,[4]; first compound 0.04 µM,0.537
same,relative viability,[4]; first compound 0.1265 µM,0.502
same,relative viability,[4]; first compound 0.4 µM,0.535
same,relative viability,[4]; first compound 1.265 µM,0.545
same,relative viability,[5]; first compound 0.04 µM,0.833
same,relative viability,[5]; first compound 0.1265 µM,0.887
same,relative viability,[5]; first compound 0.4 µM,0.714
same,relative viability,[5]; first compound 1.265 µM,0.851
O=C(O)c1ccc(-c2c[nH]c3ncc(-c4ccccc4)cc23)cc1C1CCCC1 + N=C(N)NC(=N)NCCc1ccccc1 [Phenformin] (partner 250 µM),relative viability,[1]; first compound 0.04 µM,0.514
same,relative viability,[1]; first compound 0.1265 µM,0.617
same,relative viability,[1]; first compound 0.4 µM,0.433
same,relative viability,[1]; first compound 1.265 µM,0.234
same,relative viability,[6]; first compound 0.04 µM,0.168
same,relative viability,[6]; first compound 0.1265 µM,0.197
same,relative viability,[6]; first compound 0.4 µM,0.187
same,relative viability,[6]; first compound 1.265 µM,0.0803
same,relative viability,[2]; first compound 0.04 µM,0.331
same,relative viability,[2]; first compound 0.1265 µM,0.324
same,relative viability,[2]; first compound 0.4 µM,0.306
same,relative viability,[2]; first compound 1.265 µM,0.265
same,relative viability,[3]; first compound 0.04 µM,0.369
same,relative viability,[3]; first compound 0.1265 µM,0.34
same,relative viability,[3]; first compound 0.4 µM,0.389
same,relative viability,[3]; first compound 1.265 µM,0.371
same,relative viability,[4]; first compound 0.04 µM,0.618
same,relative viability,[4]; first compound 0.1265 µM,0.575
same,relative viability,[4]; first compound 0.4 µM,0.615
same,relative viability,[4]; first compound 1.265 µM,0.564
same,relative viability,[5]; first compound 0.04 µM,0.686
same,relative viability,[5]; first compound 0.1265 µM,0.724
same,relative viability,[5]; first compound 0.4 µM,0.549
same,relative viability,[5]; first compound 1.265 µM,0.65
O=C(O)c1ccc(-c2c[nH]c3ncc(-c4ccccc4)cc23)cc1C1CCCC1 + O=C(c1cc(Cc2n[nH]c(=O)c3ccccc23)ccc1F)N1CCN(C(=O)C2CC2)CC1 [Olaparib] (partner 8 µM),relative viability,[7]; first compound 0.04 µM,0.964
same,relative viability,[7]; first compound 0.1265 µM,1
same,relative viability,[7]; first compound 0.4 µM,0.893
same,relative viability,[7]; first compound 1.265 µM,0.821
same,relative viability,[1]; first compound 0.04 µM,0.747
same,relative viability,[1]; first compound 0.1265 µM,0.671
same,relative viability,[1]; first compound 0.4 µM,0.56
same,relative viability,[1]; first compound 1.265 µM,0.377
same,relative viability,[6]; first compound 0.04 µM,0.224
same,relative viability,[6]; first compound 0.1265 µM,0.674
same,relative viability,[6]; first compound 0.4 µM,0.345
same,relative viability,[6]; first compound 1.265 µM,0.307
same,relative viability,[8]; first compound 0.04 µM,0.521
same,relative viability,[8]; first compound 0.1265 µM,0.56
same,relative viability,[8]; first compound 0.4 µM,0.488
same,relative viability,[8]; first compound 1.265 µM,0.395
same,relative viability,[9]; first compound 0.04 µM,0.836
same,relative viability,[9]; first compound 0.1265 µM,0.758
same,relative viability,[9]; first compound 0.4 µM,0.846
same,relative viability,[9]; first compound 1.265 µM,0.719
same,relative viability,[2]; first compound 0.04 µM,0.366
same,relative viability,[2]; first compound 0.1265 µM,0.307
same,relative viability,[2]; first compound 0.4 µM,0.825
same,relative viability,[2]; first compound 1.265 µM,0.398
same,relative viability,[3]; first compound 0.04 µM,0.728
same,relative viability,[3]; first compound 0.1265 µM,0.771
same,relative viability,[3]; first compound 0.4 µM,0.758
same,relative viability,[3]; first compound 1.265 µM,0.729
same,relative viability,[10]; first compound 0.04 µM,0.57
same,relative viability,[10]; first compound 0.1265 µM,0.468
same,relative viability,[10]; first compound 0.4 µM,0.382
same,relative viability,[10]; first compound 1.265 µM,0.49
same,relative viability,[11]; first compound 0.04 µM,0.676
same,relative viability,[11]; first compound 0.1265 µM,1.15
same,relative viability,[11]; first compound 0.4 µM,0.763
same,relative viability,[12]; first compound 0.04 µM,0.692
same,relative viability,[12]; first compound 0.1265 µM,0.626
same,relative viability,[12]; first compound 0.4 µM,0.618
same,relative viability,[12]; first compound 1.265 µM,0.406
same,relative viability,[5]; first compound 0.04 µM,0.816
same,relative viability,[5]; first compound 0.1265 µM,0.673
same,relative viability,[5]; first compound 0.4 µM,0.596
same,relative viability,[5]; first compound 1.265 µM,0.755
